In PubChem BioAssay (NCI):
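GI50 is the concentration that inhibits growth by half. Definition used: TGI = concentration required for complete inhibition of growth.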

Columns and labels:
Assay in all cases: NCI tumour cell line growth inhibition, 384-well format
786-0 renal = tested on: 786-0 renal
A498 renal = tested on: A498 renal
A549 NSCLC = tested on: A549 NSCLC
ACHN renal = tested on: ACHN renal
CAKI-1 renal = tested on: CAKI-1 renal
CCRF-CEM leukemia = tested on: CCRF-CEM leukemia
COLO 205 colon = tested on: COLO 205 colon
DU-145 prostate = tested on: DU-145 prostate
EKVX NSCLC = tested on: EKVX NSCLC
HCC-2998 colon = tested on: HCC-2998 colon
HCT-15 colon = tested on: HCT-15 colon
HL-60(TB) leukemia = tested on: HL-60(TB) leukemia
HOP-62 NSCLC = tested on: HOP-62 NSCLC
HOP-92 NSCLC = tested on: HOP-92 NSCLC
HS 578T breast = tested on: HS 578T breast
HT29 colon = tested on: HT29 colon
IGROV1 ovarian = tested on: IGROV1 ovarian
K-562 leukemia = tested on: K-562 leukemia
KM12 colon = tested on: KM12 colon
LOX IMVI melanoma = tested on: LOX IMVI melanoma
M14 melanoma = tested on: M14 melanoma
MALME-3M melanoma = tested on: MALME-3M melanoma
MCF7 breast = tested on: MCF7 breast
MDA-MB-231 breast = tested on: MDA-MB-231 breast
MDA-MB-435 melanoma = tested on: MDA-MB-435 melanoma
MDA-MB-468 breast = tested on: MDA-MB-468 breast
MOLT-4 leukemia = tested on: MOLT-4 leukemia
NCI-H226 lung = tested on: NCI-H226 lung
NCI-H23 lung = tested on: NCI-H23 lung
NCI-H322M lung = tested on: NCI-H322M lung
NCI-H460 NSCLC = tested on: NCI-H460 NSCLC
NCI-H522 lung = tested on: NCI-H522 lung
NCI/ADR-RES ovarian = tested on: NCI/ADR-RES ovarian
OVCAR-3 ovarian = tested on: OVCAR-3 ovarian
OVCAR-4 ovarian = tested on: OVCAR-4 ovarian
OVCAR-5 ovarian = tested on: OVCAR-5 ovarian
OVCAR-8 ovarian = tested on: OVCAR-8 ovarian
PC-3 prostate = tested on: PC-3 prostate
RPMI-8226 leukemia = tested on: RPMI-8226 leukemia
RXF 393 renal = tested on: RXF 393 renal
SF-268 CNS = tested on: SF-268 CNS
SF-295 CNS = tested on: SF-295 CNS
SF-539 CNS = tested on: SF-539 CNS
SK-MEL-28 melanoma = tested on: SK-MEL-28 melanoma
SK-MEL-5 melanoma = tested on: SK-MEL-5 melanoma
SK-OV-3 ovarian = tested on: SK-OV-3 ovarian
SN12C renal = tested on: SN12C renal
SNB-19 CNS = tested on: SNB-19 CNS
SNB-75 CNS = tested on: SNB-75 CNS
SR leukemia = tested on: SR leukemia
SW-620 colon = tested on: SW-620 colon
T-47D breast = tested on: T-47D breast
TK-10 renal = tested on: TK-10 renal
U251 glioblastoma = tested on: U251 glioblastoma
UACC-257 melanoma = tested on: UACC-257 melanoma
UACC-62 melanoma = tested on: UACC-62 melanoma
UO-31 renal = tested on: UO-31 renal

In the case of `CN[C@@H](C)C(=O)N[C@H](C(=O)N1CCC[C@H]1C(=O)Nc1snnc1-c1ccccc1)C1CCCCC1`, the GI50 ([…]-0 renal) was 31.1 µM, the TGI (786-0 renal) was > 100 µM and the GI50 (A498 renal) was 26.4 µM. The TGI (A498 renal) was 74.6 µM, the GI50 (A549 NSCLC) was > 100 µM and the TGI (A549 NSCLC) was > 100 µM. It also gave a GI50 (ACHN renal) of 17.4 µM, a TGI (ACHN renal) of 39.5 µM and a GI50 (CAKI-1 renal) of 52.1 µM. The TGI (CAKI-1 renal) was > 100 µM, the GI50 (CCRF-CEM leukemia) was 10.9 µM and the TGI (CCRF-CEM leukemia) was 32.2 µM. The GI50 (COLO 205 colon) was 34.5 µM, the TGI (COLO 205 colon) was > 100 µM and the GI50 (DU-145 prostate) was 49.9 µM. The TGI (DU-145 prostate) was > 100 µM, the GI50 (EKVX NSCLC) was 97.3 µM and the TGI (EKVX NSCLC) was > 100 µM. The GI50 (HCC-2998 colon) was 21.5 µM, the TGI (HCC-2998 colon) was 40.9 µM and the GI50 (HCT-15 colon) was 80.7 µM. For the same compound, the TGI (HCT-15 colon) was > 100 µM, the GI50 (HL-60(TB) leukemia) was 0.412 µM and the TGI (HL-60(TB) leukemia) was 15.5 µM. It also gave a GI50 (HOP-62 NSCLC) of 11.2 µM, a TGI (HOP-62 NSCLC) of 33.2 µM and a GI50 (HOP-92 NSCLC) of 18.1 µM. The TGI (HOP-92 NSCLC) was 73.6 µM, the GI50 (HS 578T breast) was 34.5 µM and the TGI (HS 578T breast) was > 100 µM. The GI50 (HT29 colon) was 17.3 µM, the TGI (HT29 colon) was 35.7 µM and the GI50 (IGROV1 ovarian) was 64.5 µM. For the same compound, the TGI (IGROV1 ovarian) was > 100 µM, the GI50 (K-562 leukemia) was 19.1 µM and the TGI (K-562 leukemia) was 35.3 µM. The GI50 (KM12 colon) was 60.1 µM, the TGI (KM12 colon) was > 100 µM and the GI50 (LOX IMVI melanoma) was 37.9 µM. For the same compound, the TGI (LOX IMVI melanoma) was > 100 µM, the GI50 (M14 melanoma) was 28.2 µM and the TGI (M14 melanoma) was 72.7 µM. The GI50 (MALME-3M melanoma) was 0.0294 µM, the TGI (MALME-3M melanoma) was 0.392 µM and the GI50 (MCF7 breast) was 31.7 µM. The TGI (MCF7 breast) was > 100 µM, the GI50 (MDA-MB-231 breast) was 0.0979 µM and the TGI (MDA-MB-231 breast) was 2.51 µM. For the same compound, the GI50 (MDA-MB-435 melanoma) was 31.2 µM, the TGI (MDA-MB-435 melanoma) was > 100 µM and the GI50 (MDA-MB-468 breast) was 6.93 µM. For the same compound, the TGI (MDA-MB-468 breast) was 26.9 µM, the GI50 (MOLT-4 leukemia) was 17.8 µM and the TGI (MOLT-4 leukemia) was 35.6 µM. The GI50 (NCI-H226 lung) was 70.7 µM, the TGI (NCI-H226 lung) was > 100 µM and the GI50 (NCI-H23 lung) was 14.2 µM. For the same compound, the TGI (NCI-H23 lung) was > 100 µM, the GI50 (NCI-H322M lung) was > 100 µM and the TGI (NCI-H322M lung) was > 100 µM. The GI50 (NCI-H460 NSCLC) was 38.7 µM, the TGI (NCI-H460 NSCLC) was > 100 µM and the GI50 (NCI-H522 lung) was 2.44 µM. The TGI (NCI-H522 lung) was 11.9 µM, the GI50 (NCI/ADR-RES ovarian) was 5.89 µM and the TGI (NCI/ADR-RES ovarian) was 45.2 µM. The GI50 (OVCAR-3 ovarian) was 26.2 µM, the TGI (OVCAR-3 ovarian) was > 100 µM and the GI50 (OVCAR-4 ovarian) was 0.0142 µM. The TGI (OVCAR-4 ovarian) was 0.046 µM, the GI50 (OVCAR-5 ovarian) was 59.1 µM and the TGI (OVCAR-5 ovarian) was > 100 µM. The GI50 (OVCAR-8 ovarian) was 16.5 µM, the TGI (OVCAR-8 ovarian) was 36.2 µM and the GI50 (PC-3 prostate) was 45.6 µM. For the same compound, the TGI (PC-3 prostate) was > 100 µM, the GI50 (RPMI-8226 leukemia) was 22.7 µM and the TGI (RPMI-8226 leukemia) was 57.2 µM. The GI50 (RXF 393 renal) was 0.444 µM, the TGI (RXF 393 renal) was 23.8 µM and the GI50 (SF-268 CNS) was > 100 µM. For the same compound, the TGI (SF-268 CNS) was > 100 µM, the GI50 (SF-295 CNS) was 64 µM and the TGI (SF-295 CNS) was > 100 µM. The GI50 (SF-539 CNS) was 40.1 µM, the TGI (SF-539 CNS) was > 100 µM and the GI50 (SK-MEL-28 melanoma) was 22.7 µM. The TGI (SK-MEL-28 melanoma) was 64.4 µM, the GI50 (SK-MEL-5 melanoma) was 0.845 µM and the TGI (SK-MEL-5 melanoma) was 18.1 µM. For the same compound, the TGI (SK-OV-3 ovarian) was 2.78 µM, the GI50 (SN12C renal) was > 100 µM and the TGI (SN12C renal) was > 100 µM. For the same compound, the GI50 (SNB-19 CNS) was > 100 µM, the TGI (SNB-19 CNS) was > 100 µM and the GI50 (SNB-75 CNS) was 38.7 µM. The TGI (SNB-75 CNS) was > 100 µM, the GI50 (SR leukemia) was 13.5 µM and the TGI (SR leukemia) was 33.6 µM. The GI50 (SW-620 colon) was > 100 µM, the TGI (SW-620 colon) was > 100 µM and the GI50 (T-47D breast) was 45.5 µM. For the same compound, the TGI (T-47D breast) was > 100 µM, the GI50 (TK-10 renal) was 18.6 µM and the TGI (TK-10 renal) was 46.2 µM. For the same compound, the GI50 (U251 glioblastoma) was 59.7 µM, the TGI (U251 glioblastoma) was > 100 µM and the GI50 (UACC-257 melanoma) was 16.6 µM. For the same compound, the TGI (UACC-257 melanoma) was 32.5 µM, the GI50 (UACC-62 melanoma) was 30.1 µM and the TGI (UACC-62 melanoma) was 91.5 µM. For the same compound, the GI50 (UO-31 renal) was 8.13 µM and the TGI (UO-31 renal) was > 100 µM.
